Data from US8959984B2, “Proteome-wide quantification of small molecule binding to cellular target proteins” (priority 2007, dated 2015).

Molecular target: CaMK2g (CAMK2G) (Homo sapiens, UniProt Q13555)
Sequence (Q13555 whole entry): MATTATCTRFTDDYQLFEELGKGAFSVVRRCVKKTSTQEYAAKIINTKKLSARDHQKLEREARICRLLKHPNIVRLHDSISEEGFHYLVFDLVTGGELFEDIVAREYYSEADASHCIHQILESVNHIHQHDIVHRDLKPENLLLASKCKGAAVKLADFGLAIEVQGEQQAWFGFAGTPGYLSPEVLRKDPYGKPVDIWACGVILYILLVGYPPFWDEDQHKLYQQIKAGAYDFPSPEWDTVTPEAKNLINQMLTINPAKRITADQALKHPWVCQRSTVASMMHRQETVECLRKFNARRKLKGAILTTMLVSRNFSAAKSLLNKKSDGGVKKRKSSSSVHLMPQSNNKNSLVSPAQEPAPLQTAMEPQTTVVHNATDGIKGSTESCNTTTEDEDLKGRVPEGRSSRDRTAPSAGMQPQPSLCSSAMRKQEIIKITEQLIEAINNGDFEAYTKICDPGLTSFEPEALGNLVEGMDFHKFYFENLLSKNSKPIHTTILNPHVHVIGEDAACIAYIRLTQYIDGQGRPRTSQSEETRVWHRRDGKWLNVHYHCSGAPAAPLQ

In the case of `COc1cc2ncnc(Nc3ccc(F)c(Cl)c3)c2cc1OCCCN1CCOCC1` [gefitinib], the “rAVERAGE (10 nM/0 nM Gef.)” value is reported as 0.95, the “rAVERAGE (100 nM/0 nM Gef.)” value is reported as 1.08 and the “rAVERAGE (1000 nM/0 nM Gef.)” value is reported as 1.01. The “rAVERAGE (10000 nM/0 nM Gef.)” value was 0.92.
